Reference: ChEMBL document CHEMBL3132765, “Discovery of novel RIP derivatives by alanine scanning for the treatment of S. aureus infections” (Medchemcomm, 2013)
Values after ≈ are worked out from the molar mass of the structure shown. Active and inactive are the calls of the source. The calls are words filed in the database; no cut-off is given here. Peptide text beside a SMILES is read from it.

Tests used:
Rattus norvegicus [1] = experiment: Toxicity in Wistar rat infected with methicillin-susceptible Staphylococcus aureus Smith diffuse assessed as mortality at 7 mg/kg administered as solution by soaking of graft after 7 days; format: organism-based; design: dose 7 mg/kg; conditions: in vivo, other, 168 h
Rattus norvegicus [2] = experiment: Toxicity in Wistar rat infected with methicillin-susceptible Staphylococcus aureus Smith diffuse assessed as vomiting at 7 mg/kg administered as solution by soaking of graft after 7 days; format: organism-based; design: dose 7 mg/kg; conditions: in vivo, other, 168 h
Rattus norvegicus [3] = experiment: Toxicity in Wistar rat infected with methicillin-susceptible Staphylococcus aureus Smith diffuse assessed as diarrhea at 7 mg/kg administered as solution by soaking of graft after 7 days; format: organism-based; design: dose 7 mg/kg; conditions: in vivo, other, 168 h
Rattus norvegicus [4] = experiment: Toxicity in Wistar rat infected with methicillin-susceptible Staphylococcus aureus Smith diffuse assessed as anorexia at 7 mg/kg administered as solution by soaking of graft after 7 days; format: organism-based; design: dose 7 mg/kg; conditions: in vivo, other, 168 h
Staphylococcus aureus [5] = experiment: Antimicrobial activity against methicillin-susceptible Staphylococcus aureus Smith diffuse assessed as inhibition of biofilm formation by cell-based microbroth dilution method; format: functional
Rattus norvegicus [6] = experiment: Toxicity in Wistar rat infected with methicillin-susceptible Staphylococcus aureus Smith diffuse assessed as perigraft inflammation at 7 mg/kg administered as solution by soaking of graft after 7 days; format: organism-based; design: dose 7 mg/kg; conditions: in vivo, other, 168 h
Rattus norvegicus [7] = experiment: Toxicity in Wistar rat infected with methicillin-susceptible Staphylococcus aureus Smith diffuse assessed as behavioral alterations at 7 mg/kg administered as solution by soaking of graft after 7 days; format: organism-based; design: dose 7 mg/kg; conditions: in vivo, other, 168 h
Rattus norvegicus [8] = experiment: Toxicity in Wistar rat infected with methicillin-susceptible Staphylococcus aureus Smith diffuse assessed as behavioral alterations administered as solution by soaking of graft after 7 days; format: organism-based; conditions: in vivo, other, 168 h
Rattus norvegicus [9] = experiment: Toxicity in Wistar rat infected with methicillin-susceptible Staphylococcus aureus Smith diffuse assessed as perigraft inflammation administered as solution by soaking of graft after 7 days; format: organism-based; conditions: in vivo, other, 168 h
Rattus norvegicus [10] = experiment: Toxicity in Wistar rat infected with methicillin-susceptible Staphylococcus aureus Smith diffuse assessed as diarrhea administered as solution by soaking of graft after 7 days; format: organism-based; conditions: in vivo, other, 168 h
Rattus norvegicus [11] = experiment: Toxicity in Wistar rat infected with methicillin-susceptible Staphylococcus aureus Smith diffuse assessed as vomiting administered as solution by soaking of graft after 7 days; format: organism-based; conditions: in vivo, other, 168 h
Rattus norvegicus [12] = experiment: Toxicity in Wistar rat infected with methicillin-susceptible Staphylococcus aureus Smith diffuse assessed as anorexia administered as solution by soaking of graft after 7 days; format: organism-based; conditions: in vivo, other, 168 h
Rattus norvegicus [13] = experiment: Toxicity in Wistar rat infected with methicillin-susceptible Staphylococcus aureus Smith diffuse assessed as mortality administered as solution by soaking of graft after 7 days; format: organism-based; conditions: in vivo, other, 168 h
Staphylococcus aureus [14] = experiment: Antimicrobial activity against methicillin-susceptible Staphylococcus aureus Smith diffuse infected in Wistar rat assessed as reduction in infection administered as solution by soaking of graft after 7 days relative to control; format: functional, organism-based

Row | Compound | Activity (Rattus norvegicus [1]) | Activity (Rattus norvegicus [2]) | Activity (Rattus norvegicus [3]) | Activity (Rattus norvegicus [4]) | MIC (Staphylococcus aureus [5]) [µg/mL] | Activity (Rattus norvegicus [6]) | Activity (Rattus norvegicus [7]) | Activity (Rattus norvegicus [8]) | Activity (Rattus norvegicus [9]) | Activity (Rattus norvegicus [10]) | Activity (Rattus norvegicus [11]) | Activity (Rattus norvegicus [12]) | Activity (Rattus norvegicus [13]) | Activity (Staphylococcus aureus [14])
1 | CCCCCCCCCC(=O)N[C@@H](Cc1c[nH]c2ccccc12)C(=O)N[C@H](CC(N)=O)C(=O)N[C@@H](CC(=O)O)C(=O)N[C@@H]1C(=O)NCC(=O)N[C@@H](CCCN)C(=O)N[C@@H](CC(=O)O)C(=O)N[C@H](C)C(=O)N[C@@H](CC(=O)O)C(=O)NCC(=O)N[C@H](CO)C(=O)N[C@@H]([C@H](C)CC(=O)O)C(=O)N[C@@H](CC(=O)c2ccccc2N)C(=O)O[C@@H]1C | Non-toxic | Non-toxic | Non-toxic | Non-toxic | 4 (≈ 2.47 µM) | Non-toxic | Non-toxic |  |  |  |  |  |  | 
2 | C[C@@H](O)[C@H](NC(=O)[C@H](Cc1c[nH]c2ccccc12)NC(=O)[C@@H]1CCCN1)C(=O)N[C@@H](CC(N)=O)C(N)=O (H-PWTN-NH2) |  |  |  |  | > 128 |  |  | Non-toxic | Non-toxic | Non-toxic | Non-toxic | Non-toxic | Non-toxic | Active
3 | C[C@@H](O)[C@H](NC(=O)[C@H](Cc1c[nH]c2ccccc12)NC(=O)[C@@H]1CCCN1C(=O)[C@@H](N)CO)C(N)=O (H-SPWT-NH2) |  |  |  |  | > 128 |  |  | Non-toxic | Non-toxic | Non-toxic | Non-toxic | Non-toxic | Non-toxic | Active
4 | C[C@@H](O)[C@H](NC(=O)[C@@H](N)Cc1c[nH]c2ccccc12)C(=O)N[C@@H](CC(N)=O)C(=O)N[C@@H](Cc1ccccc1)C(N)=O (H-WTNF-NH2) |  |  |  |  | > 128 |  |  | Non-toxic | Non-toxic | Non-toxic | Non-toxic | Non-toxic | Non-toxic | Active
5 | NC(=O)[C@H](Cc1c[nH]c2ccccc12)NC(=O)[C@@H]1CCCN1C(=O)[C@H](CO)NC(=O)[C@@H](N)Cc1ccc(O)cc1 (H-YSPW-NH2) |  |  |  |  | > 128 |  |  | Non-toxic | Non-toxic | Non-toxic | Non-toxic | Non-toxic | Non-toxic | Active
6 | H-ASPWTNF-NH2 |  |  |  |  | > 128 |  |  | Non-toxic | Non-toxic | Non-toxic | Non-toxic | Non-toxic | Non-toxic | Active
7 | H-YAPWTNF-NH2 |  |  |  |  | > 128 |  |  | Non-toxic | Non-toxic | Non-toxic | Non-toxic | Non-toxic | Non-toxic | Active
8 | H-YSAWTNF-NH2 |  |  |  |  | > 128 |  |  | Non-toxic | Non-toxic | Non-toxic | Non-toxic | Non-toxic | Non-toxic | Active
9 | H-YSPATNF-NH2 |  |  |  |  | > 128 |  |  | Non-toxic | Non-toxic | Non-toxic | Non-toxic | Non-toxic | Non-toxic | Active
10 | H-YSPWANF-NH2 |  |  |  |  | > 128 |  |  | Non-toxic | Non-toxic | Non-toxic | Non-toxic | Non-toxic | Non-toxic | Active
11 | H-YSPWTAF-NH2 |  |  |  |  | > 128 |  |  | Non-toxic | Non-toxic | Non-toxic | Non-toxic | Non-toxic | Non-toxic | Active
12 | H-YSPWTNA-NH2 |  |  |  |  | > 128 |  |  | Non-toxic | Non-toxic | Non-toxic | Non-toxic | Non-toxic | Non-toxic | Active
13 | H-YSPWTNF-NH2 |  |  |  |  |  |  |  |  |  |  |  |  |  | Active
